Source: EP0640747B1, “Boiler system pH/phosphate program control method” (NALCO CHEMICAL COMPANY, priority 1993, dated 1995)

Assay: thermal stability of inert fluorescent tracers under boiler conditions
Assay type: physicochemical
Conditions: for thermally stable (substantially inert) for time: at 285 °C (545 °F); for thermally stable (substantially inert) at pressures up to: for time periods commensurate with commercial boiler holding times; for thermally stable (substantially inert) at temperatures up to: temperature limit, also printed as 1004 °F
From the text: Among the substantially boiler-system-inert fluorescent compounds are the mono-, di- and trisulfonated naphthalenes, including their water-soluble salts, particularly the various naphthalene mono- and disulfonic acid isomers, which are a preferred inert tracer(s) for use in the present invention. The naphthalene mono- and disulfonic acid isomers are water-soluble, generally available commercially and easily detectable and quantifiable by known fluorescence analysis techniques. Preferred naphthalene mono- and disulfonic acid isomers are the water-soluble salts of naphthalene sulfonic acid ("NSA"), such as 2-NSA, and naphthalene disulfonic acid ("NDSA" or "NDA"), for instance 1,5-NDSA. Many of these inert tracer(s) (mono-, di- and trisulfonated naphthalenes and mixtures thereof) are extremely compatible with the environments of most boiler systems.

SMILES	thermally stable (substantially inert) for time	thermally stable (substantially inert) at pressures up to	thermally stable (substantially inert) at temperatures up to
O=S(=O)(O)c1cccc2c(S(=O)(=O)O)cccc12 [1,5-NDSA, 1,5-naphthalene disulfonic acid]	at least 24 hours	about 1,500 psig	at least 540 °C
O=S(=O)(O)c1ccc2ccccc2c1 [2-NSA, 2-naphthalene sulfonic acid]	at least 24 hours	about 1,500 psig	at least 540 °C
